Measurements published in the NIST ThermoML archive (doi:10.1021/je060469v).
Numbers after ± are expanded uncertainties.

Key:
[1] = Liquid; for mass density: 298.15 K, 101.33 kPa
[2] = refractive index (Na D-line) (dimensionless); settings: 298.15 K; 101.33 kPa; Liquid; Standard Abbe refractometry

Row | Compound | mass density [1] [kg/m3] | vapor or sublimation pressure ([1]; 372.31 K) [kPa] | refractive index [2] | vapor or sublimation pressure ([1]; 419.67 K) [kPa] | vapor or sublimation pressure ([1]; 396.65 K) [kPa] | vapor or sublimation pressure ([1]; 367.78 K) [kPa]
1 | CCCC(=O)OC [methyl butanoate] | 892.16 ± 0.34 | 93.32 ± 1.9 | 1.3847 ± 0.0007 |  |  | 
2 | CCCCCC(=O)OC [methyl hexanoate] | 879.47 ± 0.36 |  | 1.4048 ± 0.0007 | 93.32 ± 2.4 |  | 
3 | CCCCC(=O)OC [methyl pentanoate] | 884.8 ± 0.35 |  | 1.3971 ± 0.0007 |  | 93.32 ± 2.4 | 
4 | CCC#N [propanenitrile] | 776.85 ± 0.51 |  | 1.36368 ± 0.00073 |  |  | 93.32 ± 1.9
